Reference: patent publication US20130273649A1, “Culture medium for pluripotent stem cells” (UNIVERSITY OF SOUTHERN CALIFORNIA, priority 2012, published 2013)

How the values were obtained:
Type in all cases: cell-based
[1] = system: β-catenin/TCF-responsive TOPFlash reporter; assay: TOPFlash reporter assay in mouse EpiSCs; details: CD1 mouse EpiSCs, 12 hours
Description: (A) TOPFlash™ assay in CD1 mouse EpiSCs treated with the indicated inhibitors for 12 hours. Data represent mean±s.d. of three biological replicates. (B) Representative phase contrast images of CD1 mouse EpiSCs cultured in the indicated conditions for 7 days. (C) Western blot analysis of CD1 mouse EpiSCs treated with the indicated inhibitors for 12 h. (D) qRT-PCR analysis of Axin1 and Axin2 mRNA levels in CD1 mouse EpiSCs stably transfected with Axin1 shRNA or Axin2 shRNA. Data represent mean±s.d. of three biological replicates. (E) Colony assay on CD1 mouse EpiSCs stably transfected with scramble, Axin1, or Axin2 shRNAs. Cells were plated onto a 6-well plate at a density of 5,000 cells/well and cultured in CHIR/IWR-1. Colonies were counted 7 days after plating. Data represent the total combined numbers of colonies from two independent experiments in which each shRNA-transfected group was cultured in one well of a 6-well plate. (F) Representative phase contrast images of CD 1 mouse EpiSCs stably transfected with the indicated shRNAs and cultured in CHIR/IWR-1 for 7 days. (G) Western blot analysis of CD1 mouse EpiSCs overexpressing Flag-tagged Axin1 or Axin2. (H) Representative phase contrast images of CD1 mouse EpiSCs overexpressing Axin1 or Axin2 and cultured in CHIR for 7 days. Axin2-overexpressing EpiSCs could be continually passaged in CHIR alone. Scale bars, 50 μm (B, F and H)
Next, we investigated the mechanism by which CHIR/XAV promotes EpiSC self-renewal. By inhibiting GSK3 phosphorylation of β-catenin, CHIR stabilizes β-catenin, which then trans-locates to the nucleus and forms complexes with DNA-binding proteins, including TCFs, to activate transcription (Logan and Nusse, 2004). […]
(§1) For quantifying relative Oct3/4 enhancer activities, pGL3-Oct4 DE and pGL3-Oct4 PE plasmids (gifts from Hans Schöler's lab) were co-transfected with the Renilla vector, using the Amaxa™ Transfection Kit (Lonza). […] For quantifying relative β-catenin/Tcf transcriptional activity, pGL2-SuperTOP™ plasmid (gift from Randall Moon) was co-transfected with the Renilla vector and assayed accordingly.

Axin2 = assay: Western blot of Axin2 in mouse EpiSCs; details: CD1 mouse EpiSCs treated 12 h
[2] = system: β-catenin/TCF-responsive TOPFlash reporter; assay: TOPFlash reporter assay in H9 human ESCs; details: 24 h
Description: (A) TOPFlash™ assay in H9 human ESCs subjected to the indicated treatments for 24 h. Data represent mean±s.d. of three biological replicates. (B) Representative phase contrast and alkaline phosphatase (AP) staining images of H9 human ESCs cultured in the indicated conditions for 3 passages. (C) Phase contrast images of H9 human ESCs cultured in CHIR/XAV or CHIR/IWR-1 for 11 passages. (D) Colony forming efficiency assay of H9 human ESCs cultured in FGF2 or CHIR/IWR-1 conditions. Data represent mean±s.d. of three biological replicates. Right panel: a representative image showing AP staining of colonies formed from H9 human ESCs cultured in either FGF2 or CHIR/IWR-1 condition. (E) Human ESCs cultured in CHIR/IWR-1 for 11 passages were immunostained with the indicated antibodies. (F) Embryoid bodies (EBs) were generated from H9 human ESCs cultured in CHIR/IWR-1 for 11 passages. The outgrowths of EBs were immunostained with the indicated antibodies. (G) H&E staining of teratomas generated from H9 ESCs cultured in CHIR/IWR-1 for 20 passages. (H) Western blot analysis of Axin1 and Axin2 expression in HES3 human ESCs treated with the indicated cytokines/inhibitors for 24 h. (I) Immunofluorescence images of H9 human ESCs (passage 5 in CHIR) overexpressing Flag-tagged Axin2. (J) Representative phase contrast and immunofluorescence images of HES2 human ESCs overexpressing ΔNβ-catenin-ERT2 at passage 5 in basal medium only. These cells were cultured in basal medium only for more than 10 passages and remained morphologically undifferentiated. (K) Phase contrast images of HES2 human ESCs overexpressing ΔNβ-catenin (left panel, passage 2 in basal medium/FGF2) or ΔNβ-catenin/A295W/I296W mutant (right panel, passage 5 in basal medium only). Scale bars, 50 μm (B, C, E-G, and I-K). (L) Model of mouse EpiSC and human ESC self-renewal mediated by β-catenin. In the absence of Wnt or GSK3 inhibitor, a β-catenin destruction complex, containing Axin1, GSK3, and APC is formed, leading to the degradation of β-catenin and differentiation (left). In the presence of Wnt or GSK3 inhibitor, β-catenin is stabilized and can initiate cellular responses related to both self-renewal and differentiation. Stabilized β-catenin induces differentiation when it translocates into the nucleus and binds TCFs to activate downstream targets (middle). Addition of XAV or IWR-1 stabilizes Axin2. […]
as §1

| SMILES | effect on TOPFlash activity induced by CHIR ([1]; added to CHIR) | amount of Axin2 protein (Axin2) | effect on TOPFlash activity induced by CHIR ([2]; added to CHIR) | TOPFlash reporter activity [1] | TOPFlash reporter activity [2] |
| --- | --- | --- | --- | --- | --- |
| Oc1nc(-c2ccc(C(F)(F)F)cc2)nc2c1CSCC2 [XAV939, 3,5,7,8-Tetrahydro-2-[4-(trifluoromethyl)phenyl]-4H-thiopyrano[4,3-d]pyrimidin-4-one] | abolished the TOPFlash activity induced by CHIR | significantly increased | abolished this TOPFlash™ activity | – | – |
| Cc1c[nH]c(-c2cnc(NCCNc3ccc(C#N)cn3)nc2-c2ccc(Cl)cc2Cl)n1 [CHIR99021, 6-((2-((4-(2,4-Dichlorophenyl)-5-(4-methyl-1H-imidazol-2-yl)pyrimidin-2-yl)amino)ethyl)amino)nicotinonitrile] | – | elevated | – | strongly induced | strongly induced |
